Test results: US20230096051A1, “CGRP ANTIGONISTS USEFUL AS TRACER COMPOUNDS FOR POSITRON EMISSION TOMOGRAPHY” (Eli Lilly and Company, priority 2019, published 2023)

Key:
[1] = target: T1, hCGRP (human calcitonin gene-related peptide) receptor (Homo sapiens, UniProt O60894+Q16602); assay: Inhibition of cAMP production by CGRP receptor antagonists in SK-N-MC neuroblastoma cells (HTRF); type: cell-based; settings: human CGRP 0.8 nM as agonist, Kb estimated as agonist-corrected IC50, read-out: hCGRP Kb ± SD
T1 construct: Cultured SK-N-MC neuroblastoma cells that endogenously express the hCGRP receptor (ATCC); host or cells: SK-N-MC neuroblastoma cells
Protocol: The hCGRP (human calcitonin gene-related peptide) receptor is functionally coupled to the Gas proteins. Stimulation by hCGRP results in an increased synthesis of intracellular cAMP and can be blocked by the addition of receptor antagonists. Receptor activity is thus a reflection of the amount of cAMP present within cells which can be detected using standard in vitro technology.
Cell Culture: Cultured SK-N-MC neuroblastoma cells that endogenously express the hCGRP receptor (ATCC) are grown in Eagle's Minimum essential medium (HYCLONE™) supplemented with 10% heat-inactivated Fetal bovine serum (FBS; GIBCO®), Non-Essential Amino Acids (GIBCO®), 1 mM sodium pyruvate, 2 mM L-glutamine, 100 U/mL of penicillin, and 10 μg/mL of streptomycin to about 70% confluency. After providing fresh medium, the cells are incubated at 37° C. overnight. On the day of the assay, cells are detached using ACCUTASE® (MP Biomedicals), resuspended in assay buffer [Hank's Balanced Salt Solution/Dulbecco's phosphate-buffered saline with […] each of CaCl2 and MgCl2 mixed 1:2, 3.3 mM 4-(2-hydroxyethyl)-1-piperazineethanesulfonic acid, 0.03% bovine serum albumin, and 0.5 mM 1-methyl-3-isobutylxanthine (as inhibitor of cAMP)], and seeded 3-5K/well into 384-well, poly-D-lysine coated white plates (BD Biosciences).
Inhibition of cAMP Production: For dose-response studies, compounds are serially diluted 1:3 in dimethyl sulfoxide and then 1:10 into assay buffer. […]
Data Analysis: The amount of intracellular cAMP is quantitated using HTRF technology (Cisbio) as per vendor instructions. […] The HTRF signal is immediately detected using an ENVISION® plate reader (Perkin-Elmer) to calculate the ratio of fluorescence at […]. […] Relative […] values are calculated from the top-bottom range of the concentration response curve using a four-parameter logistic curve fitting program (ACTIVITYBASE® v5.3.1.22 or GENEDATA SCREENER® v12.0.4), and Kb values are estimated as agonist-corrected IC50 values using the equation: […]

[2] = target: T2, ABCB1, human P-glycoprotein (Pgp) (Homo sapiens, UniProt P08183); assay: In vitro determination of efflux by Pgp, bi-directional transport across MDCKII cells; type: in vitro ADME; settings: MDCKII-ABCB1, 5 μM substrate, 60 min, B-A/A-B Papp ratios with and without inhibitor
T2 construct: host or cells: MDCKII cells
Protocol: Cell Culture: MDCKII cells stably expressing human wild-type ABCB1 (Pgp) are obtained from the Netherlands Cancer Institute (Amsterdam, The Netherlands). MDCK cells are maintained as described previously (Desai et al., Mol Pharm 10:1249-1261, 2013).
Bi-directional transport across MDCK cells: The assay is essentially conducted as described previously (Desai et al., Mol Pharm 10:1249-1261, 2013). Transport is measured in both directions across uninhibited and inhibited cell monolayers using a substrate concentration of 5 μM diluted from a 10 mM DMSO stock solution (final DMSO concentration of 0.05%) and a single 60-min time interval. […] The apparent permeability coefficients (Papp) are estimated as the slope of the mass transported per 60 min relative to the total recovered mass. The basal-to-apical (B-A)/apical-to-basal (A-B) Papp ratios are calculated in the absence or presence of inhibitor in each cell line for net efflux ratio (NER).

T1 sequence (Q16602 23-461): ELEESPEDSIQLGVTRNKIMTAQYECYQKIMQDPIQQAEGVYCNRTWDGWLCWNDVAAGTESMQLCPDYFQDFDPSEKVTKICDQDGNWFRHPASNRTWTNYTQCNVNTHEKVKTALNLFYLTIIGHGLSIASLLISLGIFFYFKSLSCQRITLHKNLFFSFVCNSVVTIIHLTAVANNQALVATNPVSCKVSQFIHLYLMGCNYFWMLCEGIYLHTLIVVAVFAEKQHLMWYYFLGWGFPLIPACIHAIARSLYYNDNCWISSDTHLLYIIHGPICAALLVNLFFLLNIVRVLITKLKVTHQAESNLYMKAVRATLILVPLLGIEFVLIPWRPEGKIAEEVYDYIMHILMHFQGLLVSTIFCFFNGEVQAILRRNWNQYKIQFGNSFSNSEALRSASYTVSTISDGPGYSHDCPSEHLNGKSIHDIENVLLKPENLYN
T1 sequence (O60894 27-148): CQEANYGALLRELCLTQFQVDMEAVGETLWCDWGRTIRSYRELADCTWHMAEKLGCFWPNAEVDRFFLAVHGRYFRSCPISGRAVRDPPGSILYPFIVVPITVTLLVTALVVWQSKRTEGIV
T2 sequence (P08183 whole entry): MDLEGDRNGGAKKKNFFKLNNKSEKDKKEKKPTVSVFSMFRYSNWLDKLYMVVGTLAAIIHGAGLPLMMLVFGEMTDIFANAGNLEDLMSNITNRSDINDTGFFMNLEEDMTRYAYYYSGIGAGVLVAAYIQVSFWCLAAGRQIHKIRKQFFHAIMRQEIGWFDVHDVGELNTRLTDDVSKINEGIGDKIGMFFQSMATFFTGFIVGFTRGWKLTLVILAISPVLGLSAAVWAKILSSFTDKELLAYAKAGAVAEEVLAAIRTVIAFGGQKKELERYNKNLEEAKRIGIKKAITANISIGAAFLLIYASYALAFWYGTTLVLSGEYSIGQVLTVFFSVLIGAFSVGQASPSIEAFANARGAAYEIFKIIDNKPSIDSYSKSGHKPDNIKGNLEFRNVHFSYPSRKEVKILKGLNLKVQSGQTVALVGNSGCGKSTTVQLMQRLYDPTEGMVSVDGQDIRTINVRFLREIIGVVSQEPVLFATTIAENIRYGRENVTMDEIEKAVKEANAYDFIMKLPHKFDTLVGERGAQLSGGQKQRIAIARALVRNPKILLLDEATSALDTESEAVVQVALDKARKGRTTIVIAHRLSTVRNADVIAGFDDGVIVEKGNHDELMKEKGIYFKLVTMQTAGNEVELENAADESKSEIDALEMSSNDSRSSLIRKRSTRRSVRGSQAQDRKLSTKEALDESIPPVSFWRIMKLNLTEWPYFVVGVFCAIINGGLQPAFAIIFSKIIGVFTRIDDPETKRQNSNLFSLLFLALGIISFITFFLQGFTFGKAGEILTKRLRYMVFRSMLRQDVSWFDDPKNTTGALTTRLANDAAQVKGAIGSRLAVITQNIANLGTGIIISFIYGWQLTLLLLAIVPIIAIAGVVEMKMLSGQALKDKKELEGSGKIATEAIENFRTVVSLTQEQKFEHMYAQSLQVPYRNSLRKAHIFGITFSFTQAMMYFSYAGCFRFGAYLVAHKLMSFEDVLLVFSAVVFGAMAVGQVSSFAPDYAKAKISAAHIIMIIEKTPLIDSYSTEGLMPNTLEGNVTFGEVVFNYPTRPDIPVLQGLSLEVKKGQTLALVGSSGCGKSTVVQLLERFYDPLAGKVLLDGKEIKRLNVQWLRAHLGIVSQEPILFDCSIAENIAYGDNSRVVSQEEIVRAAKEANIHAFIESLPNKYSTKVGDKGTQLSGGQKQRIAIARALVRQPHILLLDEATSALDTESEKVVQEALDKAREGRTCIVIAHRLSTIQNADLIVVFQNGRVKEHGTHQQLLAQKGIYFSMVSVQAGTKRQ

| Kb [1] | net efflux ratio (NER) for efflux by Pgp [2] | SMILES |
| --- | --- | --- |
| 0.1 ± 0.02 nM |  | Cc1cc(N2CC(F)C2)cc(OCc2ccc([C@@H](C)[C@@]3(C)C(=O)NC[C@@H]3CF)cc2)n1 [Example 3, (3R,4R)-3-[(1R)-1-[4-[[4-(3-fluoroazetidin-1-yl)-6-methyl-2-pyridyl]oxymethyl]phenyl]ethyl]-4-(fluoromethyl)-3-methyl-pyrrolidin-2-one] |
| 0.08 ± 0.01 nM | 1.9 | Cc1cc(N2CCC2)cc(OCc2ccc([C@@H](C)[C@@]3(C)C(=O)NC[C@@H]3CF)cc2)n1 [Example 1, (3R,4R)-3-[(1R)-1-[4-[[4-(azetidin-1-yl)-6-methyl-2-pyridyl]oxymethyl]phenyl]ethyl]-4-(fluoromethyl)-3-methyl-pyrrolidin-2-one] |
| 0.14 ± 0.02 nM | 1.6 | Cc1cc(N2CC(F)C2)cc(OCc2ccc([C@@H](C)[C@@]3(C)C(=O)NC[C@@H]3C)cc2)n1 [Example 2, (3R,4R)-3-[(1R)-1-[4-[[4-(3-fluoroazetidin-1-yl)-6-methyl-2-pyridyl]oxymethyl]phenyl]ethyl]-3,4-dimethyl-pyrrolidin-2-one] |
